The text below walks through data of the supplement of paper PMC10307832.

What all share (test): relative viability (nuclei count vs DMSO), 5 days (fraction); higher = more cells survive
Compound in experiment [1]: CC1=CC(=CC=C1)NC2=NC(=CS2)C3=CC=NC=C3 + C[C@@H](Oc1cc(-c2cnn(C3CCNCC3)c2)cnc1N)c1c(Cl)ccc(F)c1Cl [Crizotinib] (partner 1 µM)
The method in brief:
(§1)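 Lung cancer cell lines, seeded in 1536-well plates, were treated the following day by pin tool with a single drug or with five library-drug doses (not always all listed) in √10 steps on top of a fixed anchor-drug dose. Cells were fixed and nuclei stained in one step after 5 days, and nuclei were counted. Relative viability is the nuclei count for treated wells divided by that for vehicle wells, reported as medians of duplicate plates.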

Compound in experiment [2]: CC1=CC(=CC=C1)NC2=NC(=CS2)C3=CC=NC=C3 + Nc1nc2[nH]cc(CCc3ccc(C(=O)N[C@@H](CCC(=O)O)C(=O)O)cc3)c2c(=O)[nH]1 [Pemetrexed] (partner 0.2 µM)
The method in brief: as §1

Compound in the experiment “Masitinib + Luminespib”: Cc1ccc(NC(=O)c2ccc(CN3CCN(C)CC3)cc2)cc1Nc1nc(-c2cccnc2)cs1 [Masitinib] + CCNC(=O)c1noc(-c2cc(C(C)C)c(O)cc2O)c1-c1ccc(CN2CCOCC2)cc1 [Luminespib] (partner 0.01 µM)
The method in brief: as §1

Compound in experiment [3]: CC1=CC(=CC=C1)NC2=NC(=CS2)C3=CC=NC=C3 + Cc1nc(Nc2ncc(C(=O)Nc3c(C)cccc3Cl)s2)cc(N2CCN(CCO)CC2)n1 [Dasatinib] (partner 0.075 µM)
The method in brief: as §1

Turning to UMC-11, the relative viability in experiment [1] (first compound 0.08 µM) amounted to 0.602; in experiment [1] (first compound 0.253 µM) it was 0.582; in experiment [1] (first compound 0.8 µM), 0.544; in experiment [1] (first compound 2.53 µM), 0.579; in experiment [1] (first compound 8 µM), 0.72; in experiment [2] (first compound 0.08 µM), 0.662. Also, the relative viability in experiment [2] (first compound 0.253 µM) was 0.802; in experiment [2] (first compound 0.8 µM), 0.775; in experiment [2] (first compound 2.53 µM), 0.834; in experiment [2] (first compound 8 µM), 0.825; with Masitinib + Luminespib (first compound 0.03162 µM) it was 1.08; in the experiment with Masitinib + Luminespib (first compound 0.1 µM) it was 1.13. The relative viability came out at 1.17 in the experiment with Masitinib + Luminespib (first compound 0.3162 µM); 1.12 with Masitinib + Luminespib (first compound 1 µM); 0.477 in experiment [3] (first compound 0.08 µM); 0.494 in experiment [3] (first compound 0.253 µM); 0.468 in experiment [3] (first compound 0.8 µM); 0.481 in experiment [3] (first compound 2.53 µM). The relative viability in experiment [3] (first compound 8 µM) came to 0.534.
